Assay results published in article PMC11910216, “Targeting ubiquitin-independent proteasome with small molecule increases susceptibility in pan-KRAS–mutant cancer models” (The Journal of Clinical Investigation, 2025).
Values joined by “and” are separate entries in the source; they are usually repeats but may differ in a detail not shown here. Equal entries are not always repeated.

Experiments:
[1] = system: RLY01 binding proteins in whole-cell lysates; test: Biotin-RLY01 pulldown mass spectrometry
Method: (§1) Cell lysates were incubated with free biotin (MedChemExpress) or biotin-RLY01 for 3 hours at room temperature with rotation. Subsequently, the prewashed streptavidin agarose beads (Yeasen Biotech) were added to the system as above and incubated 1 hour at room temperature with rotation. The beads were washed 3 times with […] and then were boiled in SDS loading buffer, followed by Western blotting.
LC-MS/MS–based proteomics analysis was conducted in collaboration with Shanghai Applied Protein Technology Co. Ltd. According to the methods described for streptavidin-biotin affinity pull-down assay, biotin-RLY01 was used to pull down target proteins from the whole-cell lysates. SDS-PAGE gels were stained with Silver Staining kits (Beyotime, P0017S). The entire gel was cut into pieces at the target sites (Supplemental Figure 6F, black arrows), which were destained, reduced, and alkylated, followed by trypsin digestion. The digested peptides were extracted, resuspended in 0.1% formic acid, and analyzed by LC-MS/MS on a Q-Exactive mass spectrometer (Thermo Electron). The raw MS data for each sample were combined and searched using MaxQuant 1.6.14 software for identification and quantitation analysis. The minimal scores for peptide and protein were set as 20 and 50, respectively. The FDR was set to 0.01 for analysis.

Colo205 cells = test: Cell viability assay (CCK-8); format: cell-based; conditions: Homo sapiens, COLO 205; Colo205 (KRAS-WT); 72 hours
Method: (§6) Cells were seeded into 96-well plates at a density of 1,500 cells per well. […] Upon measurement, 10 μL CCK-8 (Yeasen, 40203ES80) mixed with 100 μL serum-free medium was added to each well and incubated for 1 hour at 37°C. Plates were shaken, and optical density values were determined at 450 nm using a microplate reader (BioTek, Synergy Neo2).

MRC5 cells = test: Cell viability assay (CCK-8); format: cell-based; conditions: Homo sapiens; MRC5 (Normal cells); 72 hours
Method: as §6

HCT116 cells = test: Apoptosis, annexin V and propidium iodide flow cytometry; format: cell-based, human; parameters: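 percent of Annexin V and PI stained apoptotic cells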
Method: (§2) The Apoptosis Detection Kit (MultiSciences Biotech Co. Ltd.) was used to detect cell death according to the manufacturer’s protocol. After RLY01 treatment, both attached and floating cells were harvested, washed with PBS, suspended in binding buffer, stained in annexin V–allophycocyanin (APC) and propidium iodide (PI), and analyzed by flow cytometry. For each experiment, 1 × 10^6 cells/mL were analyzed by the flow cytometer (BD Biosciences) and analyzed with FlowJo v10.8.1 (BD Biosciences).

HCT15 cells = test: as above; format: cell-based, human; parameters: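 percent of Annexin V and PI stained apoptotic cells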
Method: as §2

A549 cells = test: as above; format: cell-based, human; parameters: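 percent of Annexin V and PI stained apoptotic cells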
Method: as §2

1459 cells = test: Cell viability assay (CCK-8); format: cell-based; conditions: Homo sapiens; 1459, Colon; Supplemental Table 4
Method: as §6

H226 cells = test: Cell viability assay (CCK-8); format: cell-based; conditions: Homo sapiens, NCI-H226; H226, Lung; Supplemental Table 4
Method: (§7) Cells were seeded into 96-well plates at a density of 1,500 cells per well. Cells were then cultivated at 37°C for different periods (0 hours, 24 hours, 48 hours, 72 hours, 96 hours). Upon measurement, 10 μL CCK-8 (Yeasen, 40203ES80) mixed with 100 μL serum-free medium was added to each well and incubated for 1 hour at 37°C. Plates were shaken, and optical density values were determined at 450 nm using a microplate reader (BioTek, Synergy Neo2).

H358-KRASG13D cells = test: Colony formation assay, RLY01 and AMG510; format: cell-based, human
Method: (§3) Cells were equally seeded into 12-well plates at a density of 2,000 cells per well. Cultivated for 6–10 days, cells were fixed with 4% polyoxymethylene and stained with 0.2% crystal violet. Images of stained colonies were taken, and the numbers of the colonies were recorded and compared within different groups. Each experiment was representative of at least 3 independent experiments. […]
(§4) by using CompuSyn software (Version 1). The averages and error bars represent the mean ± SEM from three independent experiments. (E-H) Representative colony formation images of Calu1, Calu1- KRASG13D and Calu1- KRASY96D cells (E) and H358, H358- KRASG13D and H358- KRASY96D cells (G) cell with or without RLY01 and […]
(§5) controls. Each value represents mean ± SEM (n = 3). *p < 0.05, **p < 0.01, ***p < 0.001, ****p < 0.0001; p values were measured by two-way ANOVA with Tukey’s multiple-comparisons test.

H358-KRASY96D cells = test: Colony formation assay, RLY01 and AMG510; format: cell-based, human
Method: as §3, §4, §5

Calu1-KRASG13D cells = test: Colony formation assay, RLY01 and AMG510; format: cell-based, human
Method: as §3, §4, §5

Calu1-KRASY96D cells = test: Colony formation assay, RLY01 and AMG510; format: cell-based, human
Method: as §3, §4, §5

H647 cells = test: Cell viability assay (CCK-8); format: cell-based; conditions: Homo sapiens, NCI-H647; H647, Lung; Supplemental Table 4
Method: as §7

[2] = system: α6 and α7 of the 20S proteasome; test: Streptavidin-biotin affinity pull-down assay (biotin-RLY01); format: binding, human; conditions: α7R66A, α7L82A, α6Q146A, α6F154A; 20 μM biotin-RLY01; HCT116 lysates
Method: as §1

[3] = target: T1, α6 and α7 of the 20S proteasome (Homo sapiens, UniProt P25786+P25788); test: as above; format: binding
T1 construct: SW620 cell protein lysates were incubated with biotin, biotin-RLY01; endogenous in cells; host or cells: SW620 cell lysate
Method: as §1

[4] = protein PSMA7 (α7), sample A_1 (sample groups not given)
[5] = protein PSMA7 (α7), sample A_2 (sample groups not given)
[6] = protein PSMA7 (α7), sample B_1 (sample groups not given)
[7] = protein PSMA7 (α7), sample B_2 (sample groups not given)

## COc1ccc(C2C(C#N)=C(N)Oc3[nH]ncc32)cc1COc1ccc(Cl)cc1 (centres unmarked) [RLY01]
[1]
  protein precipitated by biotin-RLY01 (mass spectrometry): effectively precipitated α7
[1]; protein PSMA7 (α7) in RLY01 pulldown mass spectrum, over all samples
  iBAQ: 23968000
[1]; [4]
  Intensity A_1: 17989000
  iBAQ A_1: 1284900
[1]; [5]
  Intensity A_2: 2996300
  iBAQ A_2: 214020
[1]; [6]
  Intensity B_1: 259310000
  iBAQ B_1: 18522000
[1]; [7]
  Intensity B_2: 55262000
  iBAQ B_2: 3947300
[1]; protein PSMA7 (α7, Proteasome subunit alpha type-7) in RLY01 pulldown mass spectrum, sum over samples
  Intensity: 335560000
Colo205 cells
  IC50: 67.1 µM
MRC5 cells
  IC50: 29.5 µM
HCT116 cells; HCT116, 10 μM
  apoptotic cells: 12.73 and 12.39 and 12.42
HCT116 cells; HCT116, 20 μM
  apoptotic cells: 22.64 and 21.85 and 22.34
HCT116 cells; HCT116, 40 μM
  apoptotic cells: 31.84 and 31.78 and 34
HCT15 cells; HCT15, 10 μM
  apoptotic cells: 6.54 and 5.74 and 6.11
HCT15 cells; HCT15, 20 μM
  apoptotic cells: 13.68 and 14.22 and 13.53
HCT15 cells; HCT15, 40 μM
  apoptotic cells: 21.06 and 20.27 and 21.43
A549 cells; A549, 10 μM
  apoptotic cells: 17.18 and 16.02 and 16.64
A549 cells; A549, 20 μM
  apoptotic cells: 32.97 and 32.55 and 33.65
A549 cells; A549, 40 μM
  apoptotic cells: 50.21 and 50.13 and 50.63
1459 cells
  IC50: 32.5 µM
H226 cells
  IC50: 27.3 µM
H358-KRASG13D cells
  colony formation relative to DMSO: 21.187 and 26.3594 and 20.6399
H358-KRASY96D cells
  colony formation relative to DMSO: 23.2509 and 24.3365 and 19.813
Calu1-KRASG13D cells
  colony formation relative to DMSO: 40.0491 and 33.3365 and 29.5412
Calu1-KRASY96D cells
  colony formation relative to DMSO: 40.6617 and 32.1848 and 24.6924
H647 cells
  IC50: 21.9 µM
[2]
  interaction with mutant α7 / α6 in biotin pulldown: directly abolished the interaction between RLY01 and 20S-α7 or 20S-α6
[3]; HCT116 lysates, B-RLY01 20, 40, 80 μM
  binding to α7 subunit in pull-down: can bind with α7 subunit
[3]; SW620 lysates, B-RLY01 10 μM + 100 or 200 μM RLY01
  competition for binding to biotin-RLY01: competed with α6 and α7 of the 20S proteasome for binding to biotin-RLY01
